Test [1] relates to human primary CFs. Briefly: Quantitative real-time PCR of cardiac-specific genes in primary CFs. The format is cell-based. As to the method: (§1) Human primary skin, cardiac, lung, bladder fibroblast, and brain pericyte cultures. Human primary cardiac fibroblasts were isolated and cultured as follows: a piece of fresh right atrial biopsy was weighed, minced into small pieces (1-2 mm^3), and digested in 6-well peri-dishes as described. Human primary cardiac fibroblasts were grown and maintained in a fibroblast growth medium (C-23025, Promocell) supplemented with 1% penicillin-streptomycin (15140-122, Gibco) in a humidified atmosphere (95% air, 5% CO2) at 37° C. The medium was renewed every 2-3 days. Cells were passaged using standard trypsinization techniques at 80-90% confluency. The same protocol was also used to isolate and culture fibroblasts from human skin and lung tissues. Primary bladder fibroblasts were purchased from Lifeline (FC-0050) and maintained in the same fibroblast growth medium. Human brain pericytes were purchased from Cell systems (ACBRI 498) and cultured in SmGM-2 medium (Lonza, CC-3182). […]
Quantitative real-time PCR. […] After mixing 0.2 μl of the cDNA template, 1 μl of TaqMan® primer sets (Life Technologies), 10 μl of TaqMan® Master Mix (Life Technologies), and 8.8 μl of ddH2O in the reaction system, real-time quantitative PCR was performed on the StepOne™ Real-Time PCR System (Life Technologies). […]

The subject of test [2] is primary CFs. In words: Sirius red colorimetric assay of secreted collagen, primary CFs. The conditions noted are these: 48 hrs. The format is cell-based, human. As to the method: Human primary skin, cardiac, lung, bladder fibroblast, and brain pericyte cultures. Human primary cardiac fibroblasts were isolated and cultured as follows: a piece of fresh right atrial biopsy was weighed, minced into small pieces (1-2 mm^3), and digested in 6-well peri-dishes as described. Human primary cardiac fibroblasts were grown and maintained in a fibroblast growth medium (C-23025, Promocell) supplemented with 1% penicillin-streptomycin (15140-122, Gibco) in a humidified atmosphere (95% air, 5% CO2) at 37° C. The medium was renewed every 2-3 days. Cells were passaged using standard trypsinization techniques at 80-90% confluency. The same protocol was also used to isolate and culture fibroblasts from human skin and lung tissues. Primary bladder fibroblasts were purchased from Lifeline (FC-0050) and maintained in the same fibroblast growth medium. Human brain pericytes were purchased from Cell systems (ACBRI 498) and cultured in SmGM-2 medium (Lonza, CC-3182). All experiments were carried out using cells at low cell passages (<P4) and cells were serum-starved for 24 hrs before treatment.
Colorimetric assays. The cells were treated in the absence or presence of TGF-β for 48 hrs. Quantification of total secreted collagen in the cell culture supernatant was performed using a Sirius red collagen detection kit (9062, Chondrex). […]

For test [3], the system named is human iPSC-CFs. Briefly: Collagen gel contraction assay. Type of test: cell-based. The conditions noted are these: gels imaged after 24 hrs. As to the method:
Gel contraction assay. Collagen gel contraction assays were performed in three independent lines of iPSC-CFs (2.0×10^5 cells per well) using a Cell Contraction Assay kit (CBA5020, Cell Biolabs) as per the manufacturer's protocol. The cells were treated in the absence or presence of TGF-β±a TGF-β inhibitor SB431542 (SB). The gels were imaged after 24 hrs and gel area was quantified using ImageJ software (version 1.49).

The test system of test [4] is human iPSC-CFs. In words: Quantitative real-time PCR of gene expression in drug-treated iPSC-CFs. Type of test: cell-based. As to the method: Quantitative real-time PCR. Total RNA was isolated using the Qiagen miRNeasy Mini Kit (Qiagen Sciences, Inc, Germantown, Md.) following the manufacturer's instruction. For reverse transcription, a High Capacity RNA-to-cDNA kit (Life Technologies) was used, and the cDNA template was synthesized based on 1 μg of total mRNA. After mixing 0.2 μl of the cDNA template, 1 μl of TaqMan® primer sets (Life Technologies), 10 μl of TaqMan® Master Mix (Life Technologies), and 8.8 μl of ddH2O in the reaction system, real-time quantitative PCR was performed on the StepOne™ Real-Time PCR System (Life Technologies). Each reaction was run in triplicate. Expression values were normalized to the average expression of GAPDH.
(§2) Drug treatment. Unless otherwise stated, cells were treated with all drugs for 48 hrs. We used 5 ng/ml of TGFβ1 (240-B-010, R&D) to activate iPSC-CFs. Due to the short half-life, BNP (CYT-369, Prospec) was added into the medium three times a day. We used 20 μM of sacubitril (SML1380, Sigma) to inhibit ANP/BNP degradation. We used pirfenidone (S2907, Selleck Chemicals) and doxorubicin (25316-40-9, Selleck Chemicals) to test their anti-fibrotic and pro-fibrotic effects on iPSC-CFs, respectively.
On the technique in general: Quantitative PCR measures a nucleic acid by following its amplification.

Test [5] has as its system human iPSC-CFs. In words: Sirius red colorimetric assay of secreted collagen, iPSC-CFs. Type of test: cell-based. The conditions noted are these: 48 hrs. The procedure:
Colorimetric assays. The cells were treated in the absence or presence of TGF-β for 48 hrs. Quantification of total secreted collagen in the cell culture supernatant was performed using a Sirius red collagen detection kit (9062, Chondrex). The colorimetric assay was performed according to the manufacturer's protocol.

The test system of test [6] is human iPSC-CFs. In words: Immunoblotting of α-SMA in drug-treated iPSC-CFs. The format is cell-based. The conditions noted are these: CFs from different human iPSC lines. As to the method: Immunoblotting and quantification. Cultured cells were homogenized in the RIPA buffer with proteinase and phosphatase inhibitor cocktails (78440, ThermoFisher), and quantified by Pierce™ BCA Protein Assay Kit (Pierce Biotechnology Inc.). A total of 20 μg protein was separated on NuPAGE® Novex® 4-12% Bis-Tris Protein Gels (Invitrogen, Carlsbad, Calif.). After being transferred to Amersham™ Hybond™ Blotting Membranes (GE Healthcare), proteins were incubated with primary antibodies against α-SMA (ab7817, Abcam), periostin (ab14041, Abcam), collagen Ill (ab7778, Abcam), fibronectin (ab6328, Abcam), MYH7 (sc-53089, Santa Cruz), and GAPDH (MA5-15738, Invitrogen). Band intensities for target bands were analyzed and quantified by the ImageJ Fuji program.
as §2
In general terms: A western blot detects proteins with antibodies after separation by electrophoresis.

Test [7] deals with primary CFs. Briefly: In vitro wound-healing assay, primary CFs. The conditions noted are these: 25 ng/ml, 24-hour observation. The format is cell-based, human. The procedure: as §1, with “medium.” for “medium. Human brain pericytes were purchased from Cell systems (ACBRI 498) and cultured in SmGM-2 medium (Lonza, CC-3182).”
In vitro wound-healing assay. The migration of human iPSC-CFs and primary CFs was determined using a Cytoselect™ 24-Well Wound Healing Assay Kit (CBA-120, Cell Biolabs). […] The cell-free areas at each time point were measured by Image-Pro Plus (version 6.0, Media Cybernetics). For quantification purposes, the wound area generated at 0 hr was set as S0, the uncovered areas captured at 12 hrs, and 24 hrs were recorded as Si (i=12 or 24). The wound closure rate was then calculated by the following equation: wound closure rate

The test system of test [8] is human iPSC-CFs. In words: In vitro wound-healing assay, iPSC-CFs. The format is cell-based. The conditions noted are these: 25 ng/ml, 24-hour observation. As to the method: In vitro wound-healing assay. The migration of human iPSC-CFs and primary CFs was determined using a Cytoselect™ 24-Well Wound Healing Assay Kit (CBA-120, Cell Biolabs). Briefly, after confluent monolayers of CFs were formed, cells were synchronized in a low serum medium (0.5% FBS) for 24 hrs. After the wound-generating scaffold was removed from each well, cells were washed in PBS to remove residual cells in the wounded area. Cells were treated with vehicle or PDGF-BB (25 ng/ml), and images were captured using a light microscope in identical areas at baseline, 12 hrs, and 24 hrs post-treatment. The cell-free areas at each time point were measured by Image-Pro Plus (version 6.0, Media Cybernetics). For quantification purposes, the wound area generated at 0 hr was set as S0, the uncovered areas captured at 12 hrs, and 24 hrs were recorded as Si (i=12 or 24). The wound closure rate was then calculated by the following equation: wound closure rate

As to transforming growth factor-β [TGF-β], in test [1], the “expression levels of cardiac-specific genes (GATA4, TBX20, TCF21) vs vehicle-treated cells” value was “significantly downregulated”. The secreted collagen content entry in test [2] is “rise in collagen content”. Also, in test [3], the “collagen gel contraction effect vs vehicle group” value is given as “stronger”. In addition, the “expression levels of ACTA2 and POSTN vs vehicle treatment” value in test [4] (5 ng/ml TGFβ1, 48 hrs) is “significantly increased”. Besides, in test [4] (vs vehicle), the “expression levels of ECM genes COL1A1, COL3A1, COL4A2, FN1” value was “significantly increased”; the “expression of MMP1” value was “downregulation”; the “expression of MMP2” value is “upregulation”; the “expression of TIMP1, TIMP2, TIMP3” value was “upregulation”. Moreover, the “expression of proteoglycans (VCAN, CTGF, KAL1, TNC, SPARC) and focal adhesion molecules (ITGA4, ITGA5, ITGB5)” value in test [4] (vs vehicle) is “upregulated expression”. Moreover, in test [5], the secreted collagen content entry was “rise in collagen content”. The “α-SMA protein levels after treatment” value in test [6] was “significantly increased”.

B1: platelet derived growth factor-BB: platelet derived growth factor-BB, migration stimulus (protein, UniProt P01127 82-190, looked up)
Platelet-derived growth …: SLGSLTIAEPAMIAECKTRTEVFEISRRLIDRTNANFLVWPPCVEVQRCSGCCNNRNVQCRPTQVQLRPVQVRKIEIVRKKPIFKKATVTLEDHLACKCETVAAARPVT
For B1, the “cell migration (wound closure)” value in test [7] and in test [8] was “induced cell migration” each time.
